According to patent US20070128217A1 (priority 2003, published 2007):

How the values were obtained:
[1] = tested on: antibodies in sera from SARS patients (sera 1a, 1b, 2, 6, 37, 62, London, SARS-yellow, SARS-green); format: binding, human; set-up: Binding of serum 6 to linear peptides of protein X1 of SARS-CoV Urbani / Binding of serum 37 to linear peptides of protein X1 of SARS-CoV Urbani / Binding of serum 6 to looped/cyclic peptide (PEPSCAN-ELISA) / Binding of serum 37 to looped/cyclic peptide (PEPSCAN-ELISA) / Binding of serum 37 to looped/cyclic peptides of protein X1 of SARS-CoV Urbani / Binding of serum 6 to linear peptides of protein X2 / Binding of serum 37 to linear peptides of protein X2 / Binding of serum 37 to looped/cyclic peptides of protein X2 of SARS-CoV Urbani / Binding of serum 6 to linear peptides of protein M of SARS-CoV Urbani / Binding of serum 37 to linear peptides of protein M of SARS-CoV Urbani / Binding of serum 6 to looped/cyclic peptides of protein M of SARS-CoV Urbani / Binding of serum 37 to looped/cyclic peptides of protein M of SARS-CoV Urbani / Binding of serum 6 to linear peptides of protein X3 of SARS-CoV Urbani / Binding of serum 37 to linear peptides of protein X3 of SARS-CoV Urbani / Binding of serum 37 to looped/cyclic peptides of protein X3 of SARS-CoV Urbani / Binding of serum 6 to linear peptides of protein X4 of SARS-CoV Urbani / Binding of serum 37 to linear peptides of protein X4 of SARS-CoV Urbani / Binding of serum 37 to looped/cyclic peptides of protein X4 of SARS-CoV Urbani / Binding of serum 6 to linear peptides of protein X5 of SARS-CoV Urbani / Binding of serum 37 to linear peptides of protein X5 of SARS-CoV Urbani / Binding of serum 37 to looped/cyclic peptides of protein X5 of SARS-CoV Urbani / Binding of serum 6 to linear peptides of protein N of SARS-CoV Urbani / Binding of serum 37 to linear peptides of protein N of SARS-CoV Urbani / Binding of serum 6 to linear peptide (PEPSCAN-ELISA) / Binding of serum 1a to looped/cyclic peptides of protein N of SARS-CoV Urbani / Binding of serum 1b to looped/cyclic peptides of protein N of SARS-CoV Urbani / Binding of serum 2 to looped/cyclic peptides of protein N of SARS-CoV Urbani / Binding of serum 6 to looped/cyclic peptides of protein N of SARS-CoV Urbani / Binding of serum 37 to looped/cyclic peptides of protein N of SARS-CoV Urbani / Binding of serum 62 to looped/cyclic peptides of protein N of SARS-CoV Urbani / Binding of serum London to looped/cyclic peptides of protein N of SARS-CoV Urbani / Binding of serum SARS-green to looped/cyclic peptides of protein N of SARS-CoV Urbani: unit not given here
[2] = tested on: control sera (pooled serum of ten healthy LUMC hospital workers; commercial negative donor pooled serum from the Dutch bloodbank); format: binding, human; set-up: Binding of Control serum LUMC to linear peptides / Binding of Control serum Blood-bank to linear peptides / Binding of Control serum LUMC to looped peptides / Binding of Control Serum Blood-Bank to Looped peptides / Binding of Control serum LUMC to linear peptides of the protein M of SARS-CoV Urbani / Binding of Control serum Blood-bank to linear peptides of the protein M of SARS-CoV Urbani / Binding of Control serum LUMC to looped peptides of the protein M of SARS-CoV Urbani / Binding of Control Serum Blood-Bank to Looped peptides of the protein M of SARS-CoV Urbani: unit not given here
[3] = tested on: rabbit serum obtained by immunizing a rabbit with the SARS-CoV strain Frankfurt 1; format: binding; set-up: Binding of a rabbit serum to linear peptides / Binding of a rabbit serum to looped peptides / Rabbit serum linear peptides / Rabbit serum looped peptides / Binding of a rabbit serum to linear peptides of protein N of SARS-CoV Urbani (Rabbit serum linear peptides) / Binding of a rabbit serum to looped/cyclic peptides of protein N of SARS-CoV Urbani (Rabbit serum looped peptides): unit not given here

| Sequence | Binding of serum 1a to linear peptides of protein X2 [1] | Binding of serum 1a to looped/cyclic peptides of protein X2 of SARS-CoV Urbani [1] | Binding of serum 1b to linear peptides of protein X2 [1] | Binding of serum 1b to looped/cyclic peptides of protein X2 of SARS-CoV Urbani [1] | Binding of serum 2 to linear peptides of protein X2 [1] | Binding of serum 2 to looped/cyclic peptides of protein X2 of SARS-CoV Urbani [1] | Binding of serum 6 to linear peptides of protein X2 [1] | Binding of serum 6 to looped/cyclic peptides of protein X2 of SARS-CoV Urbani [1] | Binding of serum 37 to linear peptides of protein X2 [1] | Binding of serum 37 to looped/cyclic peptides of protein X2 of SARS-CoV Urbani [1] | Binding of serum 62 to linear peptides of protein X2 [1] | Binding of serum 62 to looped/cyclic peptides of protein X2 of SARS-CoV Urbani [1] | Binding of serum London to linear peptides of protein X2 [1] | Binding of serum London to looped/cyclic peptides of protein X2 of SARS-CoV Urbani [1] | Binding of serum SARS-green to linear peptides of protein X2 [1] | Binding of serum SARS-green to looped/cyclic peptides of protein X2 of SARS-CoV Urbani [1] | Binding of Control Serum Blood-Bank to Looped peptides [2] | Binding of Control serum Blood-bank to linear peptides [2] | Binding of Control serum LUMC to linear peptides [2] | Binding of Control serum LUMC to looped peptides [2] | also measured |
| --- | --- | --- | --- | --- | --- | --- | --- | --- | --- | --- | --- | --- | --- | --- | --- | --- | --- | --- | --- | --- | --- |
| IQLSLLKVTAFQHQN | 0.5 | 0.5 | 0.4 | 0.6 | 0.4 | 0.3 | 0.5 | 0.4 | 0.6 | 0.4 | 0.3 | 0.6 | 0.3 | 0.2 | 0.2 | 0.2 | 0.6 | 0.4 | 0.7 | 0.6 | Binding of serum SARS-yellow to linear peptides of protein X2 [1]: 0.3; Binding of serum SARS-yellow to looped/cyclic peptides of protein X2 of SARS-CoV Urbani [1]: 0.5; Binding of a rabbit serum to linear peptides [3]: 0.6; Binding of a rabbit serum to looped peptides [3]: 0.5 |
| ISPKFTTSLSLHKLL | 0.5 | 0.5 | 0.4 | 0.5 | 0.4 | 0.4 | 0.5 | 0.4 | 0.5 | 0.4 | 0.6 | 0.7 | 0.4 | 0.3 | 0.5 | 0.2 | 0.7 | 0.7 | 0.3 | 0.5 | Binding of serum SARS-yellow to linear peptides of protein X2 [1]: 0.4; Binding of serum SARS-yellow to looped/cyclic peptides of protein X2 of SARS-CoV Urbani [1]: 0.3; Binding of a rabbit serum to linear peptides [3]: 0.3; Binding of a rabbit serum to looped peptides [3]: 0.4 |
| ITMTTVYHITVSQIQ | 0.7 | 0.4 | 0.2 | 0.5 | 0.3 | 0.2 | 0.5 | 0.2 | 0.7 | 0.4 | 0.4 | 0.5 | 0.5 | 0.2 | 0.2 | 0.3 | 0.5 | 0.4 | 0.4 | 0.5 | Binding of serum SARS-yellow to linear peptides of protein X2 [1]: 0.0; Binding of serum SARS-yellow to looped/cyclic peptides of protein X2 of SARS-CoV Urbani [1]: 0.3; Binding of a rabbit serum to linear peptides [3]: 0.3; Binding of a rabbit serum to looped peptides [3]: 0.3 |
| ITVSQIQLSLLKVTA | 0.6 | 0.5 | 0.5 | 0.5 | 0.4 | 0.4 | 0.5 | 1.4 | 0.6 | 0.5 | 0.4 | 0.5 | 0.4 | 1.4 | 0.1 | 0.3 | 0.6 | 0.5 | 0.6 | 0.7 | Binding of serum SARS-yellow to linear peptides of protein X2 [1]: 0.7; Binding of serum SARS-yellow to looped/cyclic peptides of protein X2 of SARS-CoV Urbani [1]: 0.6; Binding of a rabbit serum to linear peptides [3]: 0.7; Binding of a rabbit serum to looped peptides [3]: 0.4 |
| IVAALVFLILCFTIK |  |  |  |  |  |  |  |  |  |  |  |  |  |  |  |  | 0.8 | 0.6 | 0.5 | 0.7 | Binding of serum 1a to linear peptides of protein X4 of SARS-CoV Urbani [1]: 0.6; Binding of serum 1a to looped/cyclic peptides of protein X4 of SARS-CoV Urbani [1]: 0.7; Binding of serum 1b to linear peptides of protein X4 of SARS-CoV Urbani [1]: 0.6; Binding of serum 1b to looped/cyclic peptides of protein X4 of SARS-CoV Urbani [1]: 0.4; Binding of serum 2 to linear peptides of protein X4 of SARS-CoV Urbani [1]: 0.4; Binding of serum 2 to looped/cyclic peptides of protein X4 of SARS-CoV Urbani [1]: 0.6; Binding of serum 6 to linear peptides of protein X4 of SARS-CoV Urbani [1]: 0.5; Binding of serum 6 to looped/cyclic peptides of protein X4 of SARS-CoV Urbani [1]: 1.4; Binding of serum 37 to linear peptides of protein X4 of SARS-CoV Urbani [1]: 0.7; Binding of serum 37 to looped/cyclic peptides of protein X4 of SARS-CoV Urbani [1]: 0.7; Binding of serum 62 to linear peptides of protein X4 of SARS-CoV Urbani [1]: 0.7; Binding of serum 62 to looped/cyclic peptides of protein X4 of SARS-CoV Urbani [1]: 0.7; Binding of serum London to linear peptides of protein X4 of SARS-CoV Urbani [1]: 0.7; Binding of serum London to looped/cyclic peptides of protein X4 of SARS-CoV Urbani [1]: 3.0; Binding of serum SARS-green to linear peptides of protein X4 of SARS-CoV Urbani [1]: 0.5; Binding of serum SARS-green to looped/cyclic peptides of protein X4 of SARS-CoV Urbani [1]: 0.5; Binding of serum SARS-yellow to linear peptides of protein X4 of SARS-CoV Urbani [1]: 0.6; Binding of serum SARS-yellow to looped/cyclic peptides of protein X4 of SARS-CoV Urbani [1]: 0.7; Rabbit serum linear peptides [3]: 0.4; Rabbit serum looped peptides [3]: 0.6 |
